In PubChem BioAssay AID1963843 (Molecular Pharmacology Branch, DTP, NCI, 2024):

Tested on: 616215-338-R-J1-PDC complex spheroid viability
Experiment: Anticancer human tumor 616215-338-R-J1-PDC patient-derived colon adenocarcinoma cell line growth inhibition [POLQ]
Details: for IC50: curve of first compound; for viability, T/C: stronger effect = lower value
Method in brief: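 Growth inhibition in 3D: complex spheroids (tumor PDC, HUVEC, MSC) treated with POLQ inhibitor combinations; where Cmax unknown, highest tested concentration 10 microM, except SN-38 at 1 microM.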

[1] = second compound 0.0316 µM, first compound 0.0316 µM
[2] = second compound 0.0316 µM, first compound 0.1 µM
[3] = second compound 0.0316 µM, first compound 0.316 µM
[4] = second compound 0.0316 µM, first compound 1 µM
[5] = second compound 0.0316 µM, first compound 3.16 µM
[6] = second compound 0.0316 µM, first compound 10 µM
[7] = second compound 0.1 µM, first compound 0.0316 µM
[8] = second compound 0.1 µM, first compound 0.1 µM
[9] = second compound 0.1 µM, first compound 0.316 µM
[10] = second compound 0.1 µM, first compound 1 µM
[11] = second compound 0.1 µM, first compound 3.16 µM
[12] = second compound 0.1 µM, first compound 10 µM
[13] = second compound 0.316 µM, first compound 0.0316 µM
[14] = second compound 0.316 µM, first compound 0.1 µM
[15] = second compound 0.316 µM, first compound 0.316 µM
[16] = second compound 0.316 µM, first compound 1 µM
[17] = second compound 0.316 µM, first compound 3.16 µM
[18] = second compound 0.316 µM, first compound 10 µM
[19] = second compound 1 µM, first compound 0.0316 µM
[20] = second compound 1 µM, first compound 0.1 µM
[21] = second compound 1 µM, first compound 0.316 µM
[22] = second compound 1 µM, first compound 1 µM
[23] = second compound 1 µM, first compound 3.16 µM
[24] = second compound 1 µM, first compound 10 µM
[25] = second compound 3.16 µM, first compound 0.0316 µM
[26] = second compound 3.16 µM, first compound 0.1 µM
[27] = second compound 3.16 µM, first compound 0.316 µM
[28] = second compound 3.16 µM, first compound 1 µM
[29] = second compound 3.16 µM, first compound 3.16 µM
[30] = second compound 3.16 µM, first compound 10 µM
[31] = second compound 10 µM, first compound 0.0316 µM
[32] = second compound 10 µM, first compound 0.1 µM
[33] = second compound 10 µM, first compound 0.316 µM
[34] = second compound 10 µM, first compound 1 µM
[35] = second compound 10 µM, first compound 3.16 µM
[36] = second compound 10 µM, first compound 10 µM
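Note: spheroids exposed to compounds for one week before readout.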
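Throughout, for viability, T/C: percent viability relative to DMSO vehicle wells taken as 100%.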

CC1COCCN1c1cc(C2(O)CC3CCC(C2)O3)c2cnn(-c3ccn[nH]3)c2n1 (stereo unspecified) + COC1C(OC(N)=O)C(O)C(Oc2ccc3c(O)c(NC(=O)c4ccc(O)c(CC=C(C)C)c4)c(=O)oc3c2C)OC1(C)C
IC50 (second compound 0.0316 µM): 1.99 µM | IC50 (second compound 0.1 µM): 2.05 µM | IC50 (second compound 0.316 µM): 1.83 µM | IC50 (second compound 1 µM): 2.04 µM | IC50 (second compound 3.16 µM): 1.29 µM | IC50 (second compound 10 µM): 0.96 µM | viability, T/C [1]: 109% | viability, T/C [2]: 91.5% | viability, T/C [3]: 71% | viability, T/C [4]: 64.1% | viability, T/C [5]: 39.5% | viability, T/C [6]: 35.6% | viability, T/C [7]: 102% | viability, T/C [8]: 91.4% | viability, T/C [9]: 72% | viability, T/C [10]: 57.6% | viability, T/C [11]: 46.7% | viability, T/C [12]: 36.5% | viability, T/C [13]: 106% | viability, T/C [14]: 90.2% | viability, T/C [15]: 69.4% | viability, T/C [16]: 60.1% | viability, T/C [17]: 42.7% | viability, T/C [18]: 30.5% | viability, T/C [19]: 105% | viability, T/C [20]: 90.6% | viability, T/C [21]: 74.3% | viability, T/C [22]: 57.1% | viability, T/C [23]: 47.8% | viability, T/C [24]: 28% | viability, T/C [25]: 99.4% | viability, T/C [26]: 86.8% | viability, T/C [27]: 64.5% | viability, T/C [28]: 50.3% | viability, T/C [29]: 46.2% | viability, T/C [30]: 21.6% | viability, T/C [31]: 100% | viability, T/C [32]: 79.3% | viability, T/C [33]: 57.4% | viability, T/C [34]: 53.2% | viability, T/C [35]: 40.5% | viability, T/C [36]: 25.2%

CCc1cc2c(N3CCc4c(cc(Cn5ccnc5)cc4-c4cn(C)nc4C(F)(F)F)C3=O)cc(C)nc2c(OC)n1 + COC1C(OC(N)=O)C(O)C(Oc2ccc3c(O)c(NC(=O)c4ccc(O)c(CC=C(C)C)c4)c(=O)oc3c2C)OC1(C)C
IC50 (second compound 0.0316 µM): 8.7 µM | IC50 (second compound 0.1 µM): 9.03 µM | IC50 (second compound 0.316 µM): 6.27 µM | IC50 (second compound 1 µM): 8.55 µM | IC50 (second compound 3.16 µM): 8.18 µM | IC50 (second compound 10 µM): 9.28 µM | viability, T/C [1]: 101% | viability, T/C [2]: 109% | viability, T/C [3]: 109% | viability, T/C [4]: 110% | viability, T/C [5]: 60.5% | viability, T/C [6]: 48.6% | viability, T/C [7]: 106% | viability, T/C [8]: 111% | viability, T/C [9]: 99.5% | viability, T/C [10]: 92.9% | viability, T/C [11]: 64.6% | viability, T/C [12]: 48.8% | viability, T/C [13]: 106% | viability, T/C [14]: 109% | viability, T/C [15]: 99.7% | viability, T/C [16]: 91% | viability, T/C [17]: 59.8% | viability, T/C [18]: 43.1% | viability, T/C [19]: 113% | viability, T/C [20]: 105% | viability, T/C [21]: 104% | viability, T/C [22]: 85.1% | viability, T/C [23]: 57% | viability, T/C [24]: 49.2% | viability, T/C [25]: 113% | viability, T/C [26]: 110% | viability, T/C [27]: 102% | viability, T/C [28]: 86.6% | viability, T/C [29]: 76% | viability, T/C [30]: 44.2% | viability, T/C [31]: 115% | viability, T/C [32]: 99.2% | viability, T/C [33]: 95% | viability, T/C [34]: 77.3% | viability, T/C [35]: 53.8% | viability, T/C [36]: 51.8%

O=C(Nc1ccc(O)c(NS(=O)(=O)c2ccc(F)cc2)c1)c1ccc(-c2ccccc2)cc1 + COC1C(OC(N)=O)C(O)C(Oc2ccc3c(O)c(NC(=O)c4ccc(O)c(CC=C(C)C)c4)c(=O)oc3c2C)OC1(C)C
IC50 (second compound 0.0316 µM): > 10 µM | IC50 (second compound 0.1 µM): > 10 µM | IC50 (second compound 0.316 µM): > 10 µM | IC50 (second compound 1 µM): > 10 µM | IC50 (second compound 3.16 µM): > 10 µM | IC50 (second compound 10 µM): > 10 µM | viability, T/C [1]: 103% | viability, T/C [2]: 103% | viability, T/C [3]: 104% | viability, T/C [4]: 109% | viability, T/C [5]: 118% | viability, T/C [6]: 97.8% | viability, T/C [7]: 102% | viability, T/C [8]: 100% | viability, T/C [9]: 103% | viability, T/C [10]: 95.1% | viability, T/C [11]: 99.6% | viability, T/C [12]: 118% | viability, T/C [13]: 101% | viability, T/C [14]: 98.3% | viability, T/C [15]: 91.3% | viability, T/C [16]: 93.8% | viability, T/C [17]: 106% | viability, T/C [18]: 92.2% | viability, T/C [19]: 105% | viability, T/C [20]: 107% | viability, T/C [21]: 101% | viability, T/C [22]: 116% | viability, T/C [23]: 101% | viability, T/C [24]: 105% | viability, T/C [25]: 102% | viability, T/C [26]: 105% | viability, T/C [27]: 100% | viability, T/C [28]: 105% | viability, T/C [29]: 107% | viability, T/C [30]: 93.9% | viability, T/C [31]: 108% | viability, T/C [32]: 100% | viability, T/C [33]: 98.5% | viability, T/C [34]: 103% | viability, T/C [35]: 107% | viability, T/C [36]: 88.8%
